Test results published in patent US11976083B2, “Inhibitors of peptidylarginine deiminases” (Gilead Sciences, Inc., priority 2020, dated 2024).
pIC50: −log10 of the molar value.

Target: T1, human PAD4 (Homo sapiens, UniProt Q9UM07)
T1 construct: human PAD4 (NM_012387), A2-P663, was PCR amplified; His-SUMO (N, cleaved yes); made in house; host or cells: E. coli BL21(DE3)
Assay: In vitro PAD4 BAEE biochemical assay
Settings: BAEE substrate 3 mM, 5 nM PAD4, 2 mM calcium chloride; geometric mean of multiple experiments
Outline: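 Assay was run at 25 °C using 3 mM BAEE and 5 nM human PAD4 after a 30 min compound preincubation; ammonia produced over 2 h was quantified by OPA-derived fluorescence. Full inhibition was defined by 50 µM BB-Cl-Amidine, and IC50 came from variable-slope nonlinear regression.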

T1 sequence (Q9UM07 2-663): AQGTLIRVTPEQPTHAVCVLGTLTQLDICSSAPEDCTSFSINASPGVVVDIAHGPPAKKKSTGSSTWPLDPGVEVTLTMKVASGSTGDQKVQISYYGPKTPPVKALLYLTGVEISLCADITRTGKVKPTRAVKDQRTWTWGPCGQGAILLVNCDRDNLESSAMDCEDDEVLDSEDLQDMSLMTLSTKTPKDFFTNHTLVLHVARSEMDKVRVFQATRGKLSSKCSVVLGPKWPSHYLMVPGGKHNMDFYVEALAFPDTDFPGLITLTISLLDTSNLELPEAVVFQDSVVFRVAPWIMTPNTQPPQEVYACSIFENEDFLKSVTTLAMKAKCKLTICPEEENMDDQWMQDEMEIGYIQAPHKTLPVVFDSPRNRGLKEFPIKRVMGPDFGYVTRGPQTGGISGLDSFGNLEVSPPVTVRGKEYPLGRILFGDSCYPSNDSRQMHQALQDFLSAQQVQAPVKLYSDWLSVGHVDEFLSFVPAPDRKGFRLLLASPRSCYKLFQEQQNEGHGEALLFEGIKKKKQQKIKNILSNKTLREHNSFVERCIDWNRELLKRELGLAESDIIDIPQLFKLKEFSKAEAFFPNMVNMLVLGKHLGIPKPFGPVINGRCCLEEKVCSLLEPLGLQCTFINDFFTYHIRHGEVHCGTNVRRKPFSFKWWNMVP

`COc1cc(C(=O)N2CC[C@@H](OC(F)F)[C@@H](N)C2)cc2nc(-c3cc4ccc5nc4n3CC(F)(F)CCCCC(C)(C)C(=O)N[C@@H]5C)n(C)c12` [Example 609, (11~{R})-17-[5-[(3~{S}, 4~{R})-3-amino-4-(difluoromethoxy)piperidine-1-carbonyl]-7-methoxy-1-methyl-benzimidazol-2-yl]-3,3-difluoro-8,8,11-trimethyl-1,10,19-triazatricyclo[10.5.2.0^ {15,18}]nonadeca-12,14,16,18-tetraen-9-one] and `COc1cc(C(=O)N2CC[C@@H](OC)[C@@H](N)C2)cc2nc(-c3cc4ccc5nc4n3CC(F)(F)CCCCC3(CCC3)C(=O)N[C@@H]5C)n(C)c12` [Example 614, (11~{R})-17-[5-[(3~{S},4~ {R})-3-amino-4-methoxy-piperidine-1-carbonyl]-7-methoxy-1-methyl-benzimidazol-2-yl]-3,3-difluoro-11-methyl-spiro[1,10,19-triazatricyclo[10.5.2.0^ {15,18}]nonadeca-12,14,16,18-tetraene-8,1′-cyclobutane]-9-one] are within 0.2 log units of each other in pIC50: 6.76 for the first, 6.94 for the second.

Compared with `COc1cc(C(=O)N2CC[C@@H](OC)[C@@H](N)C2)cc2nc(-c3cc4ccc5nc4n3CCCCCc3cnc(C)nc3C(=O)N[C@@H]5C)n(C)c12` [Example 610, (2~{R})-17-[5-[(3~{S},4~ {R})-3-amino-4-methoxy-piperidine-1-carbonyl]-7-methoxy-1-methyl-benzimidazol-2-yl]-2,7-dimethyl-3,6,8,16,22-pentazatetracyclo[14.5.2.0^ {5,10}.0^{19,23}]tricosa-1(21),5(10),6,8,17,19,22-heptaen-4-one], `COc1cc(C(=O)N2CC[C@@H](OC)[C@@H](N)C2)cc2nc(-c3cc4ccc5nc4n3CCCCCCC3(COC3)C(=O)N[C@@H]5C)n(C)c12` [Example 611, (11~{R})-17-[5-[(3~{S}, 4-{R})-3-amino-4-methoxy-piperidine-1-carbonyl]-7-methoxy-1-methyl-benzimidazol-2-yl]-11-methyl-spiro[1,10,19-triazatricyclo[10.5.2.0^{15,18}]nonadeca-12,14,16,18-tetraene-8,3′-oxetane]-9-one] is 0.35 log units higher in pIC50: 6.72 for the first, 7.07 for the second. The second is the more potent here.

`COc1cc(C(=O)N2CC[C@@H](OC(F)F)[C@@H](N)C2)cc2nc(-c3cc4ccc5nc4n3CCCCCc3nccnc3C(=O)N[C@@H]5C)n(C3CC3)c12` [Example 612, (2~{R})-17-[5-[(3~{S),4~{R})-3-amino-4-(difluoromethoxy)piperidine-1-carbonyl]-1-cyclopropyl-7-methoxy-benzimidazol-2-yl]-2-methyl-3,6,9,16,22-pentazatetracyclo [14.5.2.0^{5,10}.0^{19, 23}]tricosa-1(21),5(10), 6,8,17,19,22-heptaen-4-one] and `COc1cc(C(=O)N2CC[C@@H](OC(F)F)[C@@H](N)C2)cc2nc(-c3cc4ccc5nc4n3CCCCCCC3(COC3)C(=O)N[C@@H]5C)n(C)c12` [Example 613, (11~{R})-17-[5-[(3~{S},4~{R})-3-amino-4-(difluoromethoxy)piperidine-1-carbonyl]-7-methoxy-1-methyl-benzimidazol-2-yl]-11-methyl-spiro[1,10,19-triazatricyclo[10.5.2.0^ {15,18}]nonadeca-12,14,16,18-tetraene-8,3′-oxetane]-9-one] are within 0.2 log units of each other in pIC50: 6.80 for the first, 6.97 for the second.

Compared with `COc1cc(C(=O)N[C@H]2CNCC[C@@H]2F)cc2nc(-c3cc4ccc5nc4n3CCCCCC[C@H](OC)C(=O)N[C@@H]5C)n(C)c12` [Example 615, ˜{N}-[(3˜{S},4˜{S})-4-fluoro-3-piperidyl]-7-methoxy-2-[(8˜{S},11˜{R})-8-methoxy-11-methyl-9-oxo-1,10,19-triazatricyclo[10.5.2.0^{15,18}]nonadeca-12(19),13,15(18),16-tetraen-17-yl]-1-methyl-benzimidazole-5-carboxamide], `COc1cc(C(=O)N[C@H]2CNCC[C@@H]2F)cc2nc(-c3cc4ccc5nc4n3CCCCCC[C@@H](OC)C(=O)N[C@@H]5C)n(C)c12` [Example 621, ~{N}-[(3~{S},4~{S})-4-fluoro-3-piperidyl]-7-methoxy-2-[(8~{R},11~ {R})-8-methoxy-11-methyl-9-oxo-1,10,19-triazatricyclo[10.5.2.0^ {15,18}]nonadeca-12(19),13,15(18),16-tetraen-17-yl]-1-methyl-benzimidazole-5-carboxamide] is 0.34 log units higher in pIC50: 7.03 for the first, 7.37 for the second.

First: COc1cc(C(=O)N[C@H]2CNCC[C@@H]2F)cc2nc(-c3cc4ccc5nc4n3CCCOC[C@@H]3C[C@H]3C(=O)N[C@@H]5C)n(C)c12 [Example 616, ~{N}-[(3~{S},4~{S})-4-fluoro-3-piperidyl]-7-methoxy-1-methyl-2-[(2~{R},5~{R},7~{R})-2-methyl-4-oxo-9-oxa-3,13,19-triazatetracyclo[11.5.2.0^ {5,7}.0^{16,20}]icosa-1(19),14,16(20), 17-tetraen-14-yl] benzimidazole-5-carboxamide]
Second: COc1cc(C(=O)N[C@H]2CNCC[C@@H]2F)cc2nc(-c3cc4ccc5nc4n3CCCCC[C@@]3(C)C[C@@H]3C(=O)N[C@@H]5C)n(C)c12 [Example 617, 2-[(2~{R},5~{S},7~{S})-2,7-dimethyl-4-oxo-3,13,19-triazatetracyclo[11.5.2.0^ {5,7}.0^{16,20}]icosa-1(19),14,16(20),17-tetraen-14-yl]-~{N}-[(3~ {S},4~{S})-4-fluoro-3-piperidyl]-7-methoxy-1-methyl-benzimidazole-5-carboxamide]
The pIC50 of the first is 1.20 log units higher: 7.15 for the first, 5.95 for the second.

Going from `COc1cc(C(=O)N[C@H]2CNCC[C@@H]2F)cc2nc(-c3cc4ccc5nc4n3CCCCC[C@]3(C)C[C@H]3C(=O)N[C@@H]5C)n(C)c12` [Example 618, 2-[(2~{R},5~{R},7~{R})-2,7-dimethyl-4-oxo-3,13,19-triazatetracyclo[11.5.2.0^ {5,7}.0^{16,20}]icosa-1(19),14,16(20), 17-tetraen-14-yl]- ~{N}-[(3~{S},4~{S})-4-fluoro-3-piperidyl]-7-methoxy-1-methyl-benzimidazole-5-carboxamide] to `COc1cc(C(=O)N[C@H]2CNCC[C@@H]2F)cc2nc(-c3cc4ccc5nc4n3C/C=C(/F)COCCC(=O)N[C@@H]5C)n(C)c12` [Example 619, 2-[(3~{E},11~{R})-4-fluoro-11-methyl-9-oxo-6-oxa-1,10,19-triazatricyclo[10.5.2.0^ {15,18}]nonadeca-3,12(19),13,15(18), 16-pentaen-17-yl]- ~{N}-[(3~{S},4~{S})-4-fluoro-3-piperidyl]-7-methoxy-1-methyl-benzimidazole-5-carboxamide], the pIC50 rises from 7.16 to 7.42 (0.26 log units).

Going from `COc1cc(C(=O)N2CCC[C@@H](N)C2)cc2nc(-c3cc4ccc5nc4n3C/C=C(/F)COCCC(=O)N[C@@H]5C)n(C)c12` [Example 620, (3~{E},11~{R})-17-[5-[(3~{R})-3-aminopiperidine-1-carbonyl]-7-methoxy-1-methyl-benzimidazol-2-yl]-4-fluoro-11-methyl-6-oxa-1,10,19-triazatricyclo[10.5.2.0^ {15,18}]nonadeca-3,12(19),13,15(18), 16-pentaen-9-one] to `C[C@H]1NC(=O)CCOC[C@@H]2C[C@@H]2Cn2c(-c3nc4cc(C(=O)N[C@H]5CNCC[C@@H]5F)c(F)cc4n3C3CC3)cc3ccc1nc32` [Example 622, 1-cyclopropyl-6-fluoro-~ {N}-[(3~{S},4~{S})-4-fluoro-3-piperidyl]-2-[(3~{S},5~{R},12~{R})-12-methyl-10-oxo-7-oxa-1,11,20-triazatetracyclo[11.5.2.0^ {3,5}.0^{16,19}]icosa-13(20),14,16(19), 17-tetraen-18-yl] benzimidazole-5-carboxamide], the pIC50 falls from 7.44 to 7.23 (0.21 log units).

`CO[C@@H]1CCCCC(F)(F)Cn2c(-c3nc4cc(C(=O)N[C@H]5CNCC[C@@H]5F)c(F)cc4n3C)cc3ccc(nc32)[C@@H](C)NC1=O` [Example 623, 2-[(8~{R},11~{R})-3,3-difluoro-8-methoxy-11-methyl-9-oxo-1,10,19-triazatricyclo[10.5.2.0^ {15,18}]nonadeca-12(19),13,15(18),16-tetraen-17-yl]-6-fluoro-~{N}-[(3~{S}, 4~{S})-4-fluoro-3-piperidyl]-1-methyl-benzimidazole-5-carboxamide] and `C[C@H]1NC(=O)[C@H]2C[C@@H]2CC(F)(F)CCCn2c(-c3nc4cc(C(=O)N[C@H]5CNCC[C@@H]5F)c(F)cc4n3C)cc3ccc1nc32` [Example 624, 2-[(2~{R},5~{S},7~{R})-9,9-difluoro-2-methyl-4-oxo-3,13,19-triazatetracyclo[11.5.2.0^ {5,7).0^{16,20}]icosa-1(19),14,16(20), 17-tetraen-14-yl]-6-fluoro-~{N}-[(3~{S},4~ {S})-4-fluoro-3-piperidyl]-1-methyl-benzimidazole-5-carboxamide] are within 0.2 log units of each other in pIC50: 7.33 for the first, 7.15 for the second.

First: C[C@H]1NC(=O)[C@@H]2C[C@H]2CC(F)(F)CCCn2c(-c3nc4cc(C(=O)N[C@H]5CNCC[C@@H]5F)c(F)cc4n3C)cc3ccc1nc32 [Example 625, 2-[(2~{R},5~{R},7~{S})-9,9-difluoro-2-methyl-4-oxo-3,13,19-triazatetracyclo[11.5.2.0^ {5,7}.0^{16,20}]icosa-1(19),14,16(20),17-tetraen-14-yl]-6-fluoro-~ {N}-[(3~{S},4~{S})-4-fluoro-3-piperidyl]-1-methyl-benzimidazole-5-carboxamide]
Second: C[C@H]1NC(=O)C(C)(C)CCCCCCn2c(-c3nc4cc(C(=O)N[C@H]5CNCC[C@@H]5F)c(F)cc4n3C(F)F)cc3ccc1nc32 [Example 626, 1-(difluoromethyl)-6-fluoro-˜{N}-[(3˜{S},4˜{S})-4-fluoro-3-piperidyl]-2-[(11˜{R})-8,8,11-trimethyl-9-oxo-1,10,19-triazatricyclo[10.5.2.0^{15,18}]nonadeca-12(19),13,15(18),16-tetraen-17-yl]benzimidazole-5-carboxamide]
The pIC50 of the first is 0.73 log units higher: 8.05 for the first, 7.32 for the second. The first is the more potent here.
